# Experimental data: the supplement of paper PMC10307832
# Experiments:
# Test in all cases: relative viability (nuclei count vs DMSO), 5 days (fraction); higher = more cells survive
# BAY61-3606 + Palbociclib = compound: COC1=C(C=C(C=C1)C2=CC3=NC=CN3C(=N2)NC4=C(C=CC=N4)C(=O)N)OC [BAY61-3606] + CC(=O)c1c(C)c2cnc(Nc3ccc(N4CCNCC4)cn3)nc2n(C2CCCC2)c1=O [Palbociclib] (partner 0.5 µM)
# Procedure, shortened: (§1)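 Nuclei were stained with Hoechst during a one-step fixation (final 0.05% Triton X-100, 1% formaldehyde, 1 ug/ml Hoechst) carried out 5 days after dosing, then counted on 4× images. The cells, lung cancer lines in 1536-well plates, had been dosed by pin tool the day after seeding with one drug alone or a fixed anchor-drug dose plus five library-drug doses (not always all listed) in √10 steps. Relative viability is the nuclei count in treated wells divided by that in vehicle wells, and each value is the median of duplicate plates.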
# [1] = compound: COc1cccc2c1C(=O)c1c(O)c3c(c(O)c1C2=O)C[C@@](O)(C(=O)CO)C[C@@H]3O[C@H]1C[C@H](N)[C@H](O)[C@H](C)O1 [Doxorubicin] + CC(=O)c1c(C)c2cnc(Nc3ccc(N4CCNCC4)cn3)nc2n(C2CCCC2)c1=O [Palbociclib] (partner 0.5 µM)
# Procedure, shortened: as §1
# Doxorubicin + Pictilisib = compound: COc1cccc2c1C(=O)c1c(O)c3c(c(O)c1C2=O)C[C@@](O)(C(=O)CO)C[C@@H]3O[C@H]1C[C@H](N)[C@H](O)[C@H](C)O1 [Doxorubicin] + CS(=O)(=O)N1CCN(Cc2cc3nc(-c4cccc5[nH]ncc45)nc(N4CCOCC4)c3s2)CC1 [Pictilisib] (partner 1 µM)
# Procedure, shortened: as §1
# Doxorubicin + Olaparib = compound: COc1cccc2c1C(=O)c1c(O)c3c(c(O)c1C2=O)C[C@@](O)(C(=O)CO)C[C@@H]3O[C@H]1C[C@H](N)[C@H](O)[C@H](C)O1 [Doxorubicin] + O=C(c1cc(Cc2n[nH]c(=O)c3ccccc23)ccc1F)N1CCN(C(=O)C2CC2)CC1 [Olaparib] (partner 8 µM)
# Procedure, shortened: as §1
Cell Line,relative viability (BAY61-3606 + Palbociclib; first compound 0.02 µM),relative viability (BAY61-3606 + Palbociclib; first compound 0.06325 µM),relative viability (BAY61-3606 + Palbociclib; first compound 0.2 µM),relative viability (BAY61-3606 + Palbociclib; first compound 0.6325 µM),relative viability (BAY61-3606 + Palbociclib; first compound 2 µM),relative viability ([1]; first compound 0.001 µM),relative viability ([1]; first compound 0.003162 µM),relative viability ([1]; first compound 0.01 µM),relative viability ([1]; first compound 0.03162 µM),relative viability ([1]; first compound 0.1 µM),relative viability (Doxorubicin + Pictilisib; first compound 0.001 µM),relative viability (Doxorubicin + Pictilisib; first compound 0.003162 µM),relative viability (Doxorubicin + Pictilisib; first compound 0.01 µM),relative viability (Doxorubicin + Pictilisib; first compound 0.03162 µM),relative viability (Doxorubicin + Pictilisib; first compound 0.1 µM),relative viability (Doxorubicin + Olaparib; first compound 0.001 µM),relative viability (Doxorubicin + Olaparib; first compound 0.003162 µM),relative viability (Doxorubicin + Olaparib; first compound 0.01 µM),relative viability (Doxorubicin + Olaparib; first compound 0.03162 µM),relative viability (Doxorubicin + Olaparib; first compound 0.1 µM)
NCI-H1650,0.316,0.291,0.37,0.413,0.298,0.237,0.317,0.282,0.173,0.145,0.29,0.371,0.241,0.159,0.119,0.764,0.865,0.401,0.179,0.127
NCI-H1651,0.558,0.511,0.513,0.573,0.523,0.517,0.546,0.461,0.449,0.483,0.608,0.437,0.412,0.138,0.107,0.216,0.182,0.205,0.184,0.198
NCI-H1666,0.657,0.745,0.731,0.634,0.688,–,0.646,0.626,0.565,0.568,0.376,0.37,0.309,0.237,0.271,–,0.701,0.733,0.602,0.607
NCI-H1734,0.361,0.327,0.367,0.351,0.214,0.408,0.425,0.324,0.263,0.344,0.464,0.498,0.389,0.321,0.267,0.294,0.689,0.644,0.435,0.565
NCI-H1755,0.435,0.451,0.482,0.495,0.444,0.473,0.481,0.434,0.474,0.468,0.342,0.508,0.451,0.444,0.44,0.837,0.911,0.818,0.873,0.896
NCI-H1792,0.677,0.61,0.659,0.747,0.698,–,0.668,0.651,0.542,0.558,0.325,0.287,0.309,0.209,0.251,0.506,0.473,0.473,0.412,0.548
NCI-H1793,0.27,0.283,0.337,0.335,0.474,–,0.303,0.304,0.258,0.324,–,0.365,0.417,0.309,0.301,–,0.93,0.759,0.566,0.88
NCI-H1915,0.54,0.565,0.537,0.551,0.375,0.581,0.536,0.549,0.483,0.543,0.854,1.01,0.954,1.06,1.03,0.256,0.258,0.249,0.311,0.27
NCI-H1944,0.344,0.313,0.31,0.338,0.213,0.374,0.293,0.337,0.272,0.353,0.327,0.346,0.381,0.345,0.347,0.403,0.37,0.384,0.378,0.423
NCI-H1975,0.616,0.628,0.526,0.504,0.347,0.413,0.568,0.501,0.383,0.324,0.292,0.3,0.237,0.177,0.198,0.746,0.896,0.728,0.575,0.37
NCI-H1993,0.581,0.626,0.48,0.688,0.524,0.492,0.695,0.639,0.625,0.649,0.78,0.817,0.748,0.814,0.656,0.0056,0.942,1.03,0.817,0.962
NCI-H2009,0.22,0.211,0.214,0.231,0.155,0.238,0.207,0.179,0.0594,0.168,0.712,0.777,0.719,0.535,0.282,0.735,0.557,0.64,0.457,0.315
NCI-H2023,0.393,0.401,0.397,0.423,0.283,0.368,0.368,0.254,0.169,0.0764,0.169,0.248,0.192,0.104,0.0731,0.454,0.336,0.19,0.0859,0.0625
NCI-H2085,0.461,0.487,0.45,0.46,0.435,0.472,0.458,0.461,0.53,0.512,0.509,0.537,0.512,0.459,0.519,0.788,0.825,0.828,0.92,0.775
NCI-H2087,0.234,0.264,0.221,0.28,0.249,0.259,0.216,0.235,0.176,0.227,0.703,0.886,0.841,0.495,0.454,0.652,0.528,0.445,0.443,0.372
NCI-H2126,0.356,0.353,0.369,0.352,0.31,0.349,0.347,0.371,0.345,0.386,0.494,0.523,0.501,0.49,0.517,0.908,0.962,0.916,0.941,0.907
